Test results as given in patent US9029325B2, “Amylin analogues and pharmaceutical compositions thereof” (Novo Nordisk A/S, priority 2011, dated 2015).
Starred links: 1 amine or outer side, 2 acyl side, 3 side chain; linkers in the order of their positions; H or OH if unused. Positions of bridges follow the written chain, without caps; N, C: chain ends. Residues, ends and D or L forms follow the SMILES beside them. *: point of attachment. C20 diacid = O=C(O)CCCCCCCCCCCCCCCCCCC(=O)*; γGlu = O=C(O)[C@H](CCC(=O)[*:2])N[*:1]

How the values were obtained:
[1] = Assay (III) ThT fibrillation assay for physical stability; assay type: physicochemical; conditions: for Th T pH 4.0 lag time (h): 37° C., orbital shaking 960 rpm; for ThT pH 4.0 lag time: Table 9
Outline: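 Freshly prepared samples, pH adjusted with NaOH and HClO4 or HCl, received ThT at 1 μM final and were incubated at 37° C with orbital shaking at 960 rpm. Fluorescence (ex 444 nm, em 485 nm) was read every 20 minutes; […], with polypeptide concentration by reverse HPLC before and after.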

[2] = Assay (I) efficacy testing on appetite (food intake), ad libitum fed rat model; assay type: in vivo, Sprague Dawley (SD) rats; conditions: 3 nmol/kg
Outline: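 Single ip, po or sc dosing (0.01-3 mg/kg, by body weight) at the start of the dark phase, in individually housed Sprague Dawley rats of 200-250 g with free food and water. Intake was logged per rat each hour to 7 h, then at 24 h (occasionally 48 h), against a vehicle group; outliers removed by Grubbs test.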

Th T pH 4.0 lag time (h) [1] | ThT pH 4.0 lag time [1] | SMILES | Food intake reduction 0-24 h 3 nmol/kg (%) ([2]; 0-24 h) | Food intake reduction 24-48 h 3 nmol/kg (%) ([2]; 24-48 h)
>45 h | >45 hr | CC[C@H](C)[C@H](NC(=O)[C@@H]1CCCN1C(=O)CNC(=O)[C@H](Cc1ccccc1)NC(=O)[C@H](CC(N)=O)NC(=O)[C@H](CC(N)=O)NC(=O)[C@H](CO)NC(=O)[C@H](CO)NC(=O)[C@H](Cc1c[nH]cn1)NC(=O)[C@H](Cc1c[nH]cn1)NC(=O)[C@H](CC(C)C)NC(=O)[C@H](Cc1ccccc1)NC(=O)[C@H](CCC(=O)O)NC(=O)[C@H](C)NC(=O)[C@H](CC(C)C)NC(=O)[C@H](CCCNC(=N)N)NC(=O)[C@H](CCC(N)=O)NC(=O)[C@@H](NC(=O)[C@H](C)NC(=O)[C@@H]1CSSC[C@H](NC(=O)[C@H](CCCCN)NC(=O)CC[C@H](NC(=O)CCCCCCCCCCCCCCCCCCC(=O)O)C(=O)O)C(=O)N[C@@H](CC(N)=O)C(=O)N[C@@H]([C@@H](C)O)C(=O)N[C@@H](C)C(=O)N[C@@H]([C@@H](C)O)C(=O)N1)[C@@H](C)O)C(=O)N[C@@H](CC(C)C)C(=O)N1CCC[C@H]1C(=O)N1CCC[C@H]1C(=O)N[C@H](C(=O)N[C@@H](CC(N)=O)C(=O)N[C@H](C(=O)NCC(=O)N[C@@H](CO)C(=O)N[C@@H](CC(N)=O)C(=O)N[C@H](C(=O)N1CCC[C@H]1C(N)=O)[C@@H](C)O)C(C)C)[C@@H](C)O [Example 52, N-alpha-[(S)-4-Carboxy-4-(19-carboxynonadecanoylamino)butyryl]-[Glu14, His17, Pro37]-pramlintide] ({C20 diacid-γGlu}-KCNTATCATQRLAEFLHHSSNNFGPILPPTNVGSNTP-NH2; disulfide 2-7) | 62% | 74%
>45 h | >45 hr | CC[C@H](C)[C@H](NC(=O)[C@@H]1CCCN1C(=O)CNC(=O)[C@H](Cc1ccccc1)NC(=O)[C@H](CCC(N)=O)NC(=O)[C@H](CCC(N)=O)NC(=O)[C@H](CO)NC(=O)[C@H](CO)NC(=O)[C@H](Cc1c[nH]cn1)NC(=O)[C@H](CCCNC(=N)N)NC(=O)[C@H](CC(C)C)NC(=O)[C@H](Cc1ccccc1)NC(=O)[C@H](CCC(=O)O)NC(=O)[C@H](C)NC(=O)[C@H](CC(C)C)NC(=O)[C@H](CCCNC(=N)N)NC(=O)[C@H](CCC(N)=O)NC(=O)[C@@H](NC(=O)[C@H](C)NC(=O)[C@@H]1CSSC[C@H](NC(=O)[C@H](CCC(=O)O)NC(=O)[C@H](CCCNC(=N)N)NC(=O)[C@H](CCC(=O)O)NC(=O)CC[C@H](NC(=O)CCCCCCCCCCCCCCCCCCC(=O)O)C(=O)O)C(=O)N[C@@H](CC(N)=O)C(=O)N[C@@H]([C@@H](C)O)C(=O)N[C@@H](C)C(=O)N[C@@H]([C@@H](C)O)C(=O)N1)[C@@H](C)O)C(=O)N[C@@H](CC(C)C)C(=O)N1CCC[C@H]1C(=O)N1CCC[C@H]1C(=O)N[C@H](C(=O)N[C@@H](CCC(N)=O)C(=O)N[C@H](C(=O)NCC(=O)N[C@@H](CO)C(=O)N[C@@H](CCC(N)=O)C(=O)N[C@H](C(=O)N1CCC[C@H]1C(N)=O)[C@@H](C)O)C(C)C)[C@@H](C)O [Example 164, N-alpha-[(S)-4-Carboxy-4-(19-carboxynonadecanoylamino)butyryl]-Glu-Arg-[Glu1, Glu14, Arg17, Gln21, Gln22, Gln31, Gln35, Pro37]-pramlintide] ({C20 diacid-γGlu}-ERECNTATCATQRLAEFLRHSSQQFGPILPPTQVGSQTP-NH2; disulfide 4-9 (inferred); C-terminus assumed) | – | –

Second part, the compound before the results:

SMILES | Th T pH 4.0 lag time (h) [1] | ThT pH 4.0 lag time [1] | Food intake reduction 0-24 h 3 nmol/kg (%) ([2]; 0-24 h) | Food intake reduction 24-48 h 3 nmol/kg (%) ([2]; 24-48 h)
CC[C@H](C)[C@H](NC(=O)[C@@H]1CCCN1C(=O)CNC(=O)[C@H](Cc1ccccc1)NC(=O)[C@H](CC(N)=O)NC(=O)[C@H](CCC(N)=O)NC(=O)[C@H](CO)NC(=O)[C@H](CO)NC(=O)[C@H](Cc1c[nH]cn1)NC(=O)[C@H](CCCNC(=N)N)NC(=O)[C@H](CC(C)C)NC(=O)[C@H](Cc1ccccc1)NC(=O)[C@H](CCC(=O)O)NC(=O)[C@H](C)NC(=O)[C@H](CC(C)C)NC(=O)[C@H](CCCNC(=N)N)NC(=O)[C@H](CCC(N)=O)NC(=O)[C@@H](NC(=O)[C@H](C)NC(=O)[C@@H]1CSSC[C@H](NC(=O)[C@H](CCC(=O)O)NC(=O)[C@H](CCCNC(=N)N)NC(=O)[C@H](CCC(=O)O)NC(=O)CC[C@H](NC(=O)CCCCCCCCCCCCCCCCCCC(=O)O)C(=O)O)C(=O)N[C@@H](CC(N)=O)C(=O)N[C@@H]([C@@H](C)O)C(=O)N[C@@H](C)C(=O)N[C@@H]([C@@H](C)O)C(=O)N1)[C@@H](C)O)C(=O)N[C@@H](CC(C)C)C(=O)N1CCC[C@H]1C(=O)N1CCC[C@H]1C(=O)N[C@H](C(=O)N[C@@H](CC(N)=O)C(=O)N[C@H](C(=O)NCC(=O)N[C@@H](CO)C(=O)N[C@@H](CC(N)=O)C(=O)N[C@H](C(=O)N1CCC[C@H]1C(N)=O)[C@@H](C)O)C(C)C)[C@@H](C)O [Example 161, N-alpha-[(S)-4-Carboxy-4-(19-carboxynonadecanoylamino)butyryl]-Glu-Arg-[Glu1, Glu14, Arg17, Gln21, Pro37]-pramlintide] ({C20 diacid-γGlu}-ERECNTATCATQRLAEFLRHSSQNFGPILPPTNVGSNTP-NH2; disulfide 4-9 (inferred); C-terminus assumed) | >45 h | >45 hr | – | –
CC[C@H](C)[C@H](NC(=O)[C@@H]1CCCN1C(=O)CNC(=O)[C@H](Cc1ccccc1)NC(=O)[C@H](CC(N)=O)NC(=O)[C@H](CCC(N)=O)NC(=O)[C@H](CO)NC(=O)[C@H](CO)NC(=O)[C@H](Cc1c[nH]cn1)NC(=O)[C@H](CCCNC(=N)N)NC(=O)[C@H](CC(C)C)NC(=O)[C@H](Cc1ccccc1)NC(=O)[C@H](CCC(=O)O)NC(=O)[C@H](C)NC(=O)[C@H](CC(C)C)NC(=O)[C@H](CCCNC(=N)N)NC(=O)[C@H](CCC(N)=O)NC(=O)[C@@H](NC(=O)[C@H](C)NC(=O)[C@@H]1CSSC[C@H](NC(=O)[C@H](CCC(=O)O)NC(=O)[C@H](CCCNC(=N)N)NC(=O)[C@H](CCC(=O)O)NC(=O)CC[C@H](NC(=O)CCCCCCCCCCCCCCCCCCC(=O)O)C(=O)O)C(=O)N[C@@H](CC(N)=O)C(=O)N[C@@H]([C@@H](C)O)C(=O)N[C@@H](C)C(=O)N[C@@H]([C@@H](C)O)C(=O)N1)[C@@H](C)O)C(=O)N[C@@H](CC(C)C)C(=O)N1CCC[C@H]1C(=O)N1CCC[C@H]1C(=O)N[C@H](C(=O)N[C@@H](CC(N)=O)C(=O)N[C@H](C(=O)NCC(=O)N[C@@H](CO)C(=O)N[C@@H](CCC(N)=O)C(=O)N[C@H](C(=O)N1CCC[C@H]1C(N)=O)[C@@H](C)O)C(C)C)[C@@H](C)O [Example 162, N-alpha-[(S)-4-Carboxy-4-(19-carboxynonadecanoylamino)butyryl]-Glu-Arg-[Glu1, Glu14, Arg17, Gln21, Gln35, Pro37]-pramlintide] ({C20 diacid-γGlu}-ERECNTATCATQRLAEFLRHSSQNFGPILPPTNVGSQTP-NH2; disulfide 4-9) | >45 h | >45 hr | – | –
CC[C@H](C)[C@H](NC(=O)[C@@H]1CCCN1C(=O)CNC(=O)[C@H](Cc1ccccc1)NC(=O)[C@H](CC(N)=O)NC(=O)[C@H](CCC(N)=O)NC(=O)[C@H](CO)NC(=O)[C@H](CO)NC(=O)[C@H](Cc1c[nH]cn1)NC(=O)[C@H](CCCNC(=N)N)NC(=O)[C@H](CC(C)C)NC(=O)[C@H](Cc1ccccc1)NC(=O)[C@H](CCC(=O)O)NC(=O)[C@H](C)NC(=O)[C@H](CC(C)C)NC(=O)[C@H](CCCNC(=N)N)NC(=O)[C@H](CCC(N)=O)NC(=O)[C@@H](NC(=O)[C@H](C)NC(=O)[C@@H]1CSSC[C@H](NC(=O)[C@H](CCC(=O)O)NC(=O)[C@H](CCCNC(=N)N)NC(=O)[C@H](CCC(=O)O)NC(=O)CC[C@H](NC(=O)CCCCCCCCCCCCCCCCCCC(=O)O)C(=O)O)C(=O)N[C@@H](CC(N)=O)C(=O)N[C@@H]([C@@H](C)O)C(=O)N[C@@H](C)C(=O)N[C@@H]([C@@H](C)O)C(=O)N1)[C@@H](C)O)C(=O)N[C@@H](CC(C)C)C(=O)N1CCC[C@H]1C(=O)N1CCC[C@H]1C(=O)N[C@H](C(=O)N[C@@H](CCC(N)=O)C(=O)N[C@H](C(=O)NCC(=O)N[C@@H](CO)C(=O)N[C@@H](CCC(N)=O)C(=O)N[C@H](C(=O)N1CCC[C@H]1C(N)=O)[C@@H](C)O)C(C)C)[C@@H](C)O [Example 163, N-alpha-[(S)-4-Carboxy-4-(19-carboxynonadecanoylamino)butyryl]-Glu-Arg-[Glu1, Glu14, Arg17, Gln21, Gln31, Gln35, Pro37]-pramlintide] ({C20 diacid-γGlu}-ERECNTATCATQRLAEFLRHSSQNFGPILPPTQVGSQTP-NH2; disulfide 4-9) | >45 h | >45 hr | – | –
CC[C@H](C)[C@H](NC(=O)[C@@H]1CCCN1C(=O)CNC(=O)[C@H](Cc1ccccc1)NC(=O)[C@H](CO)NC(=O)[C@H](CO)NC(=O)[C@H](CO)NC(=O)[C@H](CO)NC(=O)[C@H](CCCNC(=N)N)NC(=O)[C@@H](NC(=O)[C@H](CC(C)C)NC(=O)[C@H](Cc1ccccc1)NC(=O)[C@H](CCC(=O)O)NC(=O)[C@H](C)NC(=O)[C@H](CC(C)C)NC(=O)[C@H](CCCNC(=N)N)NC(=O)[C@H](CCC(N)=O)NC(=O)[C@@H](NC(=O)[C@H](C)NC(=O)[C@@H]1CSSC[C@H](NC(=O)[C@H](CCCCN)NC(=O)CC[C@H](NC(=O)CCCCCCCCCCCCCCCCCCC(=O)O)C(=O)O)C(=O)N[C@@H](CC(N)=O)C(=O)N[C@@H]([C@@H](C)O)C(=O)N[C@@H](C)C(=O)N[C@@H]([C@@H](C)O)C(=O)N1)[C@@H](C)O)C(C)C)C(=O)N[C@@H](CC(C)C)C(=O)N[C@@H](CO)C(=O)N[C@@H](CO)C(=O)N[C@H](C(=O)N[C@@H](CC(=O)O)C(=O)N[C@H](C(=O)NCC(=O)N[C@@H](CO)C(=O)N[C@@H](CC(=O)O)C(=O)N[C@H](C(=O)N1CCC[C@H]1C(N)=O)[C@@H](C)O)C(C)C)[C@@H](C)O [Example 170, N-alpha-[(S)-4-Carboxy-4-(19-carboxynonadecanoylamino)butyryl]-[Glu14, Arg18, Ser21, Ser22, Ser28, Ser29, Asp31, Asp35, Pro37]-pramlintide] ({C20 diacid-γGlu}-KCNTATCATQRLAEFLVRSSSSFGPILSSTDVGSDTP-NH2; disulfide 2-7 (inferred); C-terminus assumed) | >45 h | >45 hr | – | –
